Measurements taken from ChEMBL document CHEMBL3886921, “Substituted pyrazoles as N-type calcium channel blockers” (2016).

Molecular target: Voltage-gated calcium channel
Test: Functional Drug Screening System (FDSS): Calcium mobilization responses to KCl depolarization were evaluated by measuring the intensity of calcium-mediated fluorescent signal in the presence of BD Calcium Assay Dye (BD Biosciences, Franklin Lakes, N.J., U.S.A.), utilizing a Functional Drug Screening System (FDSS) by Hamamatsu Corporation (Bridgewater, N.J. U.S.A.).Twenty-four hr prior to assay, cells were seeded in clear-base poly-D-lysine-coated 384-well plates (BD Biosciences) at a density of 5,000 cells per well in culture medium and grown overnight in 5% CO2 at 37° C. On the day of assay, growth media were removed, and cells were loaded with BD calcium assay dye (BD Biosciences) for 35 min at 37° C. under 5% CO2 and then for 25 min at room temp. Utilizing the FDSS, cells were exposed to representative compounds of Formula (I) at varying concentrations, and intracellular calcium was measured for 5 min prior to the addition of 50 mM KCl for an additional 3 min of measurement.
Format: cell-based

Q: With `COc1ccccc1-n1nc(OC2CC(C)(C)C(=O)C(C)(C)C2)cc1-c1ccc(Cl)cc1` as the molecule, how does the IC50 read?
A: 9.7 nM
